Reference: article PMC6302903, “Protein and Chemical Determinants of BL-1249 Action and Selectivity for K2P Channels” (ACS Chemical Neuroscience, 2018)

Assays:
Type in all cases: cell-based
Details in all cases: Xenopus oocytes
TREK-1/AAK M4-C = biological target: T1, TREK-1/AAK M4-C (Mus musculus, UniProt O88454+P97438); assay: TEVC of chimera TREK-1/AAK M4-C
T1 construct: Y272 (TREK-1/AAK M4-C); expressed in transfected cells; host or cells: Xenopus laevis oocytes, mRNA injected; chimera built by Gibson assembly
T1 sequence (P97438+O88454 with tags, fused parts or gaps P97438:V273L/P97438:V280F/P97438:A287S/P97438:S290T/P97438:M291T/P97438:D294N): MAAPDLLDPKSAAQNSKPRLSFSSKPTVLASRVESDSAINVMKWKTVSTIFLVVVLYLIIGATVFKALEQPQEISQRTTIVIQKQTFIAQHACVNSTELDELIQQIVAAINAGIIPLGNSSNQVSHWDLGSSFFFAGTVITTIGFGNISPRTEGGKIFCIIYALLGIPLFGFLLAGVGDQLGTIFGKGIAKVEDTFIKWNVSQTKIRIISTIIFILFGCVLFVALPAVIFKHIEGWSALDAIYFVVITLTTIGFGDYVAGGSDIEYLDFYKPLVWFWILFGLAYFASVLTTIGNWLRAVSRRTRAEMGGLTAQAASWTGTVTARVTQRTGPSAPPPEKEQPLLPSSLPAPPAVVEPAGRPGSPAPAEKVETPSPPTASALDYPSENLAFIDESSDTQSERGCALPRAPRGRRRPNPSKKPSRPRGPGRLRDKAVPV

TRAAK/EK-1 M3-C = biological target: T2, TRAAK/EK-1 M3-C (Mus musculus, UniProt O88454+P97438, A173T/A231F/D223G/E202D/F190V/F242V/G166T/G224S/G226I/H162N/I179F/I208V/K200A/L167K/L171I/L175I/L177I/L182V/L186A/L235V/M195I/N228Y/N256D/P164S/P165Q/P221A/P230D/Q227E/Q233K/S170I/S193K/S197G/S229L/S249A/T187L/T189A/T225D/T252S/T253M/V168I/V174I/V191I/V209I/V214I/Y194H); assay: TEVC of chimera TRAAK/EK-1 M3-C
T2 construct: Trp161 (TRAAK/EK-1 M3-C); expressed in transfected cells; host or cells: Xenopus laevis oocytes, mRNA injected; chimera built by Gibson assembly
T2 sequence (O88454+P97438 fused with the stated changes): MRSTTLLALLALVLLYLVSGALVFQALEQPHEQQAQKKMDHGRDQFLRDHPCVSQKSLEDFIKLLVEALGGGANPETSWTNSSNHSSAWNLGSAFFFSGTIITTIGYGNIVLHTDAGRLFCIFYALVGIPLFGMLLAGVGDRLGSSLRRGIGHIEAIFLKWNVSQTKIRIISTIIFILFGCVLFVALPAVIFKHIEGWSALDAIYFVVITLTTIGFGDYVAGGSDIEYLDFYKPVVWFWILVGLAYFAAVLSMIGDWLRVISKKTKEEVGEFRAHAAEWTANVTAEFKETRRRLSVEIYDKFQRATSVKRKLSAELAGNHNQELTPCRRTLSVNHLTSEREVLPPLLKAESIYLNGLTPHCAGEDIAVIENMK

TRAAK/EK-1 M2-C = biological target: T3, TRAAK/EK-1 M2-C (Mus musculus, UniProt O88454+P97438, A151S/D143N/F160Y/H141A/P165L/Q138H/R166H/S147A/S164V/V139S/V154I); assay: TEVC of chimera TRAAK/EK-1 M2-C
T3 construct: Thr114 (TRAAK/EK-1 M2-C); expressed in transfected cells; host or cells: Xenopus laevis oocytes, mRNA injected; chimera built by Gibson assembly
T3 sequence (O88454+P97438 fused with the stated changes): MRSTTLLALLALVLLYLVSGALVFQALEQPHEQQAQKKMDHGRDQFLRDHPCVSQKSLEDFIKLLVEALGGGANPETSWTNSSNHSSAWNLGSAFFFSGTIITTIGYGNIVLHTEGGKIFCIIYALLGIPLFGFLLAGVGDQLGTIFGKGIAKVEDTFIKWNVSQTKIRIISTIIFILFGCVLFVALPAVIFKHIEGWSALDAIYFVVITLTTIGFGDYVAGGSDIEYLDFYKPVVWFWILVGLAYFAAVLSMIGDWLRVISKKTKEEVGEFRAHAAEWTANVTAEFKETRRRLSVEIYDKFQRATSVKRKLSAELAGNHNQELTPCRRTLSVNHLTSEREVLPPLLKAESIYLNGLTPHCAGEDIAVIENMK

| Structure (SMILES) | EC50 (TREK-1/AAK M4-C) | EC50 (TRAAK/EK-1 M3-C) | EC50 (TRAAK/EK-1 M2-C) |
| --- | --- | --- | --- |
| CS(=O)(=O)Nc1ccc(C(=O)NCc2ccc(Cl)cc2Cl)cc1 [ML335] | 2 ± 0.6 µM | 13 ± 2 µM | 8 ± 1 µM |
| c1ccc(-c2nnn[nH]2)c(Nc2cccc3c2CCCC3)c1 [BL-1249, (5,6,7,8-tetrahydro-naphthalen-1-yl)-[2-(1H-tetrazol-5-yl)-phenyl]-amine] | 19 ± 3 µM | 18 ± 2 µM | 28 ± 5 µM |
